Legend:
[1] = test system: fibroblast growth in ICC cultures; experiment: Fibroblast growth in ICC cultures; type: cell-based, porcine; settings: 1 mM DG
Description: (§1) (3) ICC islets cultured in medium RPMI 1640+10 mm nicotine amide+10% human serum (HS)+9% of 1.5% HPMC in saline+1 mm 2-deoxyglucose (DG).

fetal porcine ICCs = experiment: Differentiation of fetal porcine ICCs (glucose stimulated release of insulin), separate experiments; type: cell-based
Description: as §1

[2] = test system: naked mice with induced diabetes; experiment: Transplantation of cultured ICC in naked mice with alloxan-induced diabetes; type: in vivo; settings: second series, 1×3 μl ICC; 1 mM DG added to HPMC culture medium
Description: Transplantation in Naked Mice with Induced Diabetes
Diabetes was induced in naked mice by injection of alloxan (Dunn, J S, and McLetchie, Lancet 2 (1943) 384; Boquist L, Acta Pathol. Microbiol. Scand., Sect. A, 88 (1980) 201) resulting in […] within a few days indicated by blood glucose levels >25 mm. After about one week intact ICCs from other mice of this strain were transplanted to the […] anaesthetized animals. An incision was made in the abdominal wall and the left kidney was mobilized. A small hole was made in the kidney's thin […] capsule and a pipette containing ICC was carefully inserted therethrough under the capsule. The ICCs were deposited within the capsule, the pipette withdrawn and the abdominal wall and skin sutured.
In a first series of experiments an ICC standard dose of 2×3 μl corresponding to 600 ICC was injected. Three types of ICCs were compared:
(1) control, i.e. ICC islets cultured in medium RPMI 1640+10 mm nicotine amide+10% human serum (HS);
(2) ICC islets cultured in medium RPMI 1640+10 mm nicotine amide+10% human serum (HS)+9% of 1.5% HPMC in saline; […]
Numbers in square brackets indicate number of animals. […] Blood glucose was determined on day 7 and in weekly intervals thereafter. The arrow indicates nephrectomy, i.e., the kidney with ICC transplant was removed and blood glucose was determined one week thereafter. […]

For `O=CC[C@@H](O)[C@H](O)[C@H](O)CO` [DG, 2-deoxyglucose], the Fibroblast growth [1] was “reduces fibroblast growth”, the “Differentiation giving rise to glucose stimulated release of insulin” value (fetal porcine ICCs) was “does not affect the differentiation” and the “Effect of DG on the reduction of blood glucose levels” value [2] was “clearly beneficial effect on the reduction of blood glucose levels”.

Reference: patent US6479283B1, “Stimulation, culture and preservation of pancreatic cells” (Ascendia AB, priority 1997, dated 2002)
